Assay results taken from patent publication US20230000813A1, “COMPOUND FOR THE TREATMENT OF BOVINE OR SWINE RESPIRATORY DISEASE” (Intervet Inc., priority 2016, published 2023).
In brackets after ≈: the same amount, converted by molar mass.

System: Pasteurella multocida PM 12080 (IV102277-0093, BRD field isolate)
Test: MIC, broth-microdilution (CLSI VET01-A4)
Format: cell-based
Details: Pasteurella multocida PM 12080
Protocol: (§1) The Minimum inhibitory concentrations (MIC) of compounds according to the invention for a number of veterinary bacterial pathogens were determined by the broth-microdilution method according to CLSI document VET01-A4.
(§2) Microdilution trays containing a doubling dilution series of the test compound were used for the tests. The MIC results were interpreted according to the CLSI documents VET01-S3. The lowest concentration of compound at which no visible growth (i.e. no turbidity) detected by the unaided eye was recorded as the MIC.
(§3) The Minimum inhibitory concentrations (MIC) of compounds according to the invention were determined by the broth-microdilution method according to CLSI document VET01-A4.
(§4) Microdilution trays containing a doubling dilution series of the test compound were used for the tests.
(§5) The MIC results were interpreted according to the CLSI documents VET01-S3. The lowest concentration of compound at which no visible growth (i.e. no turbidity) detected by the unaided eye was recorded as the MIC.

| SMILES | MIC PM 12080 |
| --- | --- |
| CC(O)C(NC(=O)c1ccc(C#CC#CC=CCN2CCC(c3ccccc3)CC2)cc1)C(=O)NO (stereo not shown) [Compound 448] | <=0.1 μM |
| C[C@@H](O)[C@H](NC(=O)c1ccc(C#Cc2ccc(CN3CC=CC3)s2)cc1)C(=O)NO [Compound 478] | <=0.1 μM |
| C=C(C)CNCc1ccc(C#Cc2ccc(C(=O)N[C@H](C(=O)NO)[C@@H](C)O)cc2)cn1 [Compound 486] | <=0.1 μM |
| C[C@@H](O)[C@H](NC(=O)c1ccc(C#Cc2ccc(CNCC(F)(F)F)s2)cc1)C(=O)NO [Compound 477] | <=0.1 μM |
| C[C@@H](O)[C@H](NC(=O)c1ccc(C#Cc2ccc(CNCC(F)(F)F)nc2)cc1)C(=O)NO [Compound 487] | <=0.1 μM |

System: Pasteurella multocida PM 6391 (ATCC 43137, reference strain)
Test: MIC, broth-microdilution (CLSI VET01-A4)
Format: cell-based
Details: Pasteurella multocida PM 6391
Protocol: as §1, §2, §3, §4, §5

| SMILES | MIC PM 6391 |
| --- | --- |
| CC(O)C(NC(=O)c1ccc(C#CC#CC=CCN2CCC(c3ccccc3)CC2)cc1)C(=O)NO (stereo not shown) [Compound 448] | <=0.1 μM |
| C[C@@H](O)[C@H](NC(=O)c1ccc(C#Cc2ccc(CN3CC=CC3)s2)cc1)C(=O)NO [Compound 478] | <=0.1 μM |
| C=C(C)CNCc1ccc(C#Cc2ccc(C(=O)N[C@H](C(=O)NO)[C@@H](C)O)cc2)cn1 [Compound 486] | <=0.1 μM |
| C[C@@H](O)[C@H](NC(=O)c1ccc(C#Cc2ccc(CNCC(F)(F)F)s2)cc1)C(=O)NO [Compound 477] | <=0.1 μM |
| C[C@@H](O)[C@H](NC(=O)c1ccc(C#Cc2ccc(CNCC(F)(F)F)nc2)cc1)C(=O)NO [Compound 487] | <=0.1 μM |

System: Mannheimia haemolytica MH 6374 (ATCC 33396, reference strain)
Test: MIC, broth-microdilution (CLSI VET01-A4)
Format: cell-based
Details: Mannheimia haemolytica MH 6374
Protocol: as §1, §2, §3, §4, §5

| SMILES | MIC MH 6374 |
| --- | --- |
| C[C@@H](O)[C@H](NC(=O)c1ccc(C#Cc2ccc(CN3CC=CC3)s2)cc1)C(=O)NO [Compound 478] | <=0.1 μM |

Same assay, conditions: Mannheimia haemolytica MH 6374; read-out: MIC MH 6374

| SMILES | MIC |
| --- | --- |
| CC(O)C(NC(=O)c1ccc(C#CC#CC=CCN2CCC(c3ccccc3)CC2)cc1)C(=O)NO (stereo not shown) [Compound 448] | 0.4 µM (≈ 0.194 µg/mL) |
| C=C(C)CNCc1ccc(C#Cc2ccc(C(=O)N[C@H](C(=O)NO)[C@@H](C)O)cc2)cn1 [Compound 486] | 1.6 µM (≈ 0.676 µg/mL) |
| C[C@@H](O)[C@H](NC(=O)c1ccc(C#Cc2ccc(CNCC(F)(F)F)s2)cc1)C(=O)NO [Compound 477] | 0.2 µM (≈ 0.0911 µg/mL) |
| C[C@@H](O)[C@H](NC(=O)c1ccc(C#Cc2ccc(CNCC(F)(F)F)nc2)cc1)C(=O)NO [Compound 487] | 1.6 µM (≈ 0.721 µg/mL) |

System: Mannheimia haemolytica MH 6357 (M7/2, reference strain, cattle infection strain)
Test: MIC, broth-microdilution (CLSI VET01-A4)
Format: cell-based
Details: Mannheimia haemolytica MH 6357
Protocol: as §1, §2, §3, §4, §5

| SMILES | MIC MH 6357 |
| --- | --- |
| C[C@@H](O)[C@H](NC(=O)c1ccc(C#Cc2ccc(CN3CC=CC3)s2)cc1)C(=O)NO [Compound 478] | <=0.1 μM |
| C[C@@H](O)[C@H](NC(=O)c1ccc(C#Cc2ccc(CNCC(F)(F)F)s2)cc1)C(=O)NO [Compound 477] | <=0.1 μM |

Same assay, conditions: Mannheimia haemolytica MH 6357; read-out: MIC MH 6357

| SMILES | MIC |
| --- | --- |
| CC(O)C(NC(=O)c1ccc(C#CC#CC=CCN2CCC(c3ccccc3)CC2)cc1)C(=O)NO (stereo not shown) [Compound 448] | 0.8 µM (≈ 0.388 µg/mL) |
| C=C(C)CNCc1ccc(C#Cc2ccc(C(=O)N[C@H](C(=O)NO)[C@@H](C)O)cc2)cn1 [Compound 486] | 0.8 µM (≈ 0.338 µg/mL) |
| C[C@@H](O)[C@H](NC(=O)c1ccc(C#Cc2ccc(CNCC(F)(F)F)nc2)cc1)C(=O)NO [Compound 487] | 0.4 µM (≈ 0.18 µg/mL) |

System: Pasteurella multocida PM 6267 (P 2225 (L386), reference strain, mouse infection strain)
Test: MIC, broth-microdilution (CLSI VET01-A4)
Format: cell-based
Details: Pasteurella multocida PM 6267
Protocol: as §1, §2, §3, §4, §5

| SMILES | MIC PM 6267 |
| --- | --- |
| CC(O)C(NC(=O)c1ccc(C#CC#CC=CCN2CCC(c3ccccc3)CC2)cc1)C(=O)NO (stereo not shown) [Compound 448] | <=0.1 μM |
| C[C@@H](O)[C@H](NC(=O)c1ccc(C#Cc2ccc(CN3CC=CC3)s2)cc1)C(=O)NO [Compound 478] | <=0.1 μM |
| C=C(C)CNCc1ccc(C#Cc2ccc(C(=O)N[C@H](C(=O)NO)[C@@H](C)O)cc2)cn1 [Compound 486] | <=0.1 μM |
| C[C@@H](O)[C@H](NC(=O)c1ccc(C#Cc2ccc(CNCC(F)(F)F)s2)cc1)C(=O)NO [Compound 477] | <=0.1 μM |
| C[C@@H](O)[C@H](NC(=O)c1ccc(C#Cc2ccc(CNCC(F)(F)F)nc2)cc1)C(=O)NO [Compound 487] | <=0.1 μM |

System: Mannheimia haemolytica MH 10720 (154, BRD field isolate)
Test: MIC, broth-microdilution (CLSI VET01-A4)
Format: cell-based
Details: Mannheimia haemolytica MH 10720
Protocol: as §1, §2, §3, §4, §5

| SMILES | MIC MH 10720 |
| --- | --- |
| CC(O)C(NC(=O)c1ccc(C#CC#CC=CCN2CCC(c3ccccc3)CC2)cc1)C(=O)NO (stereo not shown) [Compound 448] | <=0.1 μM |
| C[C@@H](O)[C@H](NC(=O)c1ccc(C#Cc2ccc(CN3CC=CC3)s2)cc1)C(=O)NO [Compound 478] | <=0.1 μM |
| C[C@@H](O)[C@H](NC(=O)c1ccc(C#Cc2ccc(CNCC(F)(F)F)s2)cc1)C(=O)NO [Compound 477] | <=0.1 μM |
| C[C@@H](O)[C@H](NC(=O)c1ccc(C#Cc2ccc(CNCC(F)(F)F)nc2)cc1)C(=O)NO [Compound 487] | <=0.1 μM |

Same assay, conditions: Mannheimia haemolytica MH 10720; read-out: MIC MH 10720

| SMILES | MIC |
| --- | --- |
| C=C(C)CNCc1ccc(C#Cc2ccc(C(=O)N[C@H](C(=O)NO)[C@@H](C)O)cc2)cn1 [Compound 486] | 0.2 µM (≈ 0.0845 µg/mL) |

System: Mannheimia haemolytica MH 12587 (1071, BRD field isolate, macrolide-resistance: erm+, E+)
Test: MIC, broth-microdilution (CLSI VET01-A4)
Format: cell-based
Details: Mannheimia haemolytica MH 12587, macrolide-resistant
Protocol: as §1, §2, §3, §4, §5

| SMILES | MIC MH 12587 |
| --- | --- |
| CC(O)C(NC(=O)c1ccc(C#CC#CC=CCN2CCC(c3ccccc3)CC2)cc1)C(=O)NO (stereo not shown) [Compound 448] | 1.6 µM (≈ 0.777 µg/mL) |
| C[C@@H](O)[C@H](NC(=O)c1ccc(C#Cc2ccc(CN3CC=CC3)s2)cc1)C(=O)NO [Compound 478] | 0.4 µM (≈ 0.17 µg/mL) |
| C=C(C)CNCc1ccc(C#Cc2ccc(C(=O)N[C@H](C(=O)NO)[C@@H](C)O)cc2)cn1 [Compound 486] | 1.6 µM (≈ 0.676 µg/mL) |
| C[C@@H](O)[C@H](NC(=O)c1ccc(C#Cc2ccc(CNCC(F)(F)F)s2)cc1)C(=O)NO [Compound 477] | 0.4 µM (≈ 0.182 µg/mL) |
| C[C@@H](O)[C@H](NC(=O)c1ccc(C#Cc2ccc(CNCC(F)(F)F)nc2)cc1)C(=O)NO [Compound 487] | 1.6 µM (≈ 0.721 µg/mL) |

System: Mannheimia haemolytica MH 13093 (XB0472-6014.1, BRD field isolate)
Test: MIC, broth-microdilution (CLSI VET01-A4)
Format: cell-based
Details: not given
Protocol: as §1, §2

| SMILES | MIC |
| --- | --- |
| CC(O)C(NC(=O)c1ccc(C#CC#CC=CCN2CCC(c3ccccc3)CC2)cc1)C(=O)NO (stereo not shown) [Compound 448] | 1.6 µM (≈ 0.777 µg/mL) |
| C[C@@H](O)[C@H](NC(=O)c1ccc(C#Cc2ccc(CN3CC=CC3)s2)cc1)C(=O)NO [Compound 478] | 0.2 µM (≈ 0.0851 µg/mL) |
| C=C(C)CNCc1ccc(C#Cc2ccc(C(=O)N[C@H](C(=O)NO)[C@@H](C)O)cc2)cn1 [Compound 486] | 1.6 µM (≈ 0.676 µg/mL) |
| C[C@@H](O)[C@H](NC(=O)c1ccc(C#Cc2ccc(CNCC(F)(F)F)s2)cc1)C(=O)NO [Compound 477] | 0.4 µM (≈ 0.182 µg/mL) |
| C[C@@H](O)[C@H](NC(=O)c1ccc(C#Cc2ccc(CNCC(F)(F)F)nc2)cc1)C(=O)NO [Compound 487] | 1.6 µM (≈ 0.721 µg/mL) |
